{"source": "paper PMC12266748", "about": "“A Xanthine Derivative With Novel Heat Shock Protein 90‐Alpha Inhibitory and Senolytic Properties” (Aging Cell, 2025)", "key": {"MCF7 cells": {"test_system": "MCF7 cells", "test": "Dose-response curves on proliferating and Tamoxifen-induced senescent MCF7 (Incucyte)", "format": "cell-based, Homo sapiens", "text": "IMR90 and WI38 lung fibroblasts were purchased from ECACC‐Merck. Human bone marrow (BM)‐derived mesenchymal stromal cells (MSCs) were purchased from Lonza. Human umbilical vein endothelial cells (HUVECs) are primary cells obtained from a pool of donors purchased from Clonetics (Lonza). Murine ear fibroblasts (MearFs) were obtained from C57BL/6J mice maintained in the INRCA “Specific Pathogen Free” (SPF) animal facility. MCF7 breast cancer cells were purchased from ATCC. For dose–response curves, IMR90 and WI38 were induced to senescence through replicative passages; MSCs, HUVECs, and MearFs senescence was induced with Doxorubicin; MCF7 senescence was induced with 4‐Hydroxytamoxifen (Lee et al. [2014]). The EC50 was calculated using GraphPad Prism 10 software. All treatment specifications are reported in the extended section.\nMCF7 cell line (ATCC; HTB-22, Homo sapiens, breast cancer) was purchased from ATCC; cells were grown in MEM medium (Corning, New York, USA, #15-010-CVR) supplemented with 10% FBS (Gibco, Invitrogen, Carlsbad, CA, USA, #10270106), 1% glutamine (Corning #25005-CI), 1% penicillin and streptomycin (Corning #30002-CI). Cells were incubated at 37 °C with 5% CO2. Senescent status induction: MCF7 were plated 24 h before the treatment with 4-Hydroxytamoxifen (TAM) 10 μM to induce the senescence described by (Lee et al. 2014). Control cultures were treated with equal volumes of 75% ethanol as the vehicle. The treatment with TAM lasts 96 h, after which the cells have been washed and treated with the senolytic drugs K5 10 µM for another 96 h. The treatment with the senolytic compounds has been renewed at 48 h. Cell mortality and vitality curves after treatment with K5 (10 μM, orange) or Vehicle (DMSO, grey) were monitored using the Incucyte live-cell Analysis system (Sartorius, Goettingen, Germany). The estimated Senolytic index (SI) was calculated as the ratio between the EC50 in proliferating cells and the EC50 in senescent cells, extrapolated using GraphPad Prism 10 software."}, "Drosophila melanogaster": {"test_system": "Drosophila melanogaster", "test": "Drosophila melanogaster gene expression analysis (qRT-PCR)", "format": "in vivo", "details": "K5 10 μg/mL", "method": "Total RNA from Drosophila melanogaster was isolated using a TripleXtractor reagent kit (Grisp Research Solution, Porto, Portugal). Gene expression of Dacapo (Dap), Unpaired 2 (Upd2), Unpaired 3 (Upd3), and Glyceraldehyde‐3‐phosphate dehydrogenase 1 (Gapdh1) was analyzed by qRT‐PCR. Details are reported in the extended methods."}, "C57BL/6J mice": {"test_system": "C57BL/6J mice", "test": "Extended study in geriatric C57BL/6J mice (biochemistry, function, necropsy, cytokines, SA-β-gal in organs)", "format": "in vivo, mouse", "method": "Sections were prepared from organs and ear biopsies from snap‐frozen tissues and mounted on SuperFrost Plus slides (VWR). SA‐β‐gal staining was performed according to the manufacturer's instructions for the Sigma‐Aldrich‐QIA117 staining kit (Sigma‐Aldrich). Nuclei were counterstained with Nuclear Fast Red (Sigma‐Aldrich), and images were acquired using a Zeiss AxioCam HRc mounted on a Leitz Laborlux S light microscope. The percentage of senescent cells was determined with QuPath v. 0.3.2 (Bankhead et al. [2017]).\nAll experiments were performed per the European Community Council Directives of 2010/63/UE. The pilot study (PS) investigated safety and potential senolytic efficacy, and the Extended study (ES) investigated functional changes, pathological phenotype, and the principal organ targeted by K5. Protocols were approved according to current Italian law (D.Lgs. n. 26/2014) by OPBA (animal care and health committee) of IRCCS INRCA and by the General Direction of Animal Health and Veterinary Drugs of the Italian Ministry of Health with authorization n°‐137/2021‐PR for PS and authorization n°‐370/2022‐PR for ES. In the PS of p16‐3MR mice (26 months), bioluminescence associated with p16‐expression was monitored before and after treatment, and the health of the mice was longitudinally studied. The ES used geriatric C57BL/6J mice (31 months). Clinical health and physical performance were analyzed before and after K5 treatment. Subsequently, the animals were euthanized, gross necropsies were performed, and organs were collected for further analysis. Detailed protocols are reported in the extended section.\nBlood samples were collected from the right retroorbital plexus. Glucose (GLUC), creatinine (CREA), aspartate aminotransferase (AST/GOT), and alanine aminotransferase (ALT/GPT) were determined in EDTA‐plasma by using an automated analyzer (Cobas Mira, Roche) according to the manufacturer's instructions. Cytokines were measured in EDTA‐plasma using the ProcartaPlex Mouse Cytokine & Chemokine Panel 1, 26plex (Thermofisher) and read in the Luminex 200 instrument (Bio‐Rad), following the producer's recommendation.\nWe measured the clinical frailty index (CFI), Clinical Health Score (CHS), Physical Function Score (PFS), and Vitality Score (VS) in mice, as previously described (Marcozzi et al. [2023]). All frailty measurements were performed in a dedicated INRCA SPF animal facility area. The CFI score for each mouse was calculated as previously published (Whitehead et al. [2014]). The VS was obtained by calculating the arithmetic mean of the individual values of CHS and PFS. Several tests were assessed for endurance and speed Scores; details are reported in the extended methods.\nFor aged tissues: 10 μm-thick tissue sections were prepared from nine organs (liver, heart, lung, kidney, quadriceps, gastrocnemius, brain cortex, cerebellum, and hippocampus) and ear biopsies with a cryostat from snap-frozen tissues and mounted on SuperFrost Plus slides (VWR, Radnor, PA, USA). SA-β-gal staining was performed according to the manufacturer's instructions of the Sigma-Aldrich-QIA117 staining kit (Sigma-Aldrich, St. Louis, MO, USA). Nuclei were counterstained with Nuclear Fast Red (NFR) (Sigma-Aldrich, St. Louis, MO, USA), and images (from […] sections) were acquired using a Zeiss AxioCam HRc mounted on a Leitz Laborlux S light microscope. The percentage of senescent cells was determined as the mean of 3–4 images from each tissue section by counting the total and SA-β-gal-positive cells with the positive cell detection tool available in the open-source software for digital image analysis, QuPath v. 0.3.2 (Bankhead et al. 2017).\nIn the extended study, more geriatric C57BL/6J mice were used to confirm safety and investigate the main organs targeted by K5 (Fig. S5). For this purpose, 26 geriatric mice (14 males, 12 females, aged 31 months) and 24 geriatric mice (13 males, 11 females, and 31 months) were treated with K5 and the Vehicle. […]"}, "[1]": {"details": "geriatric C57BL/6J mice, vs control"}}, "note": "Where two headings read alike, the source gives them in different places.", "data": [{"smiles": "Cc1ccccc1-n1c(=O)n(Cc2ccccc2)c(=O)c2[nH]cnc21", "note": "[Compound K5, 1-benzyl-3-(2-methylphenyl)-7H-purine-2,6-dione]", "values": [{"measurement": "EC50", "setting": "MCF7 cells; Homo sapiens, MCF7, 96 h, MCF7, K5 96 h, read-out: EC50 proliferating cells", "value": 167, "unit": "µM"}, {"measurement": "EC50", "setting": "MCF7 cells; Homo sapiens, MCF7, 96 h, MCF7, TAM 10 μM 96 h, then K5 96 h, read-out: EC50 senescent cells", "value": 24.4, "unit": "µM"}, {"measurement": "Senolytic evidence (no, partly/yes)", "setting": "MCF7 cells; MCF7, 4-hydroxy-tamoxifen", "value": "Yes"}, {"measurement": "EC50", "setting": "MCF7 cells; MCF7, K5 96 h, read-out: EC50 proliferating cells", "value": 167, "unit": "µM"}, {"measurement": "EC50", "setting": "MCF7 cells; MCF7, TAM 10 μM 96 h, then K5 96 h, read-out: EC50 senescent cells", "value": 24, "unit": "µM"}, {"measurement": "Senolytic index (estimated)", "setting": "MCF7 cells; MCF7, SI = EC50 in proliferating cells/EC50 senescent cells", "value": 7}, {"measurement": "Dap relative expression vs controls", "setting": "Drosophila melanogaster", "value": "no significant difference"}, {"measurement": "Upd2 relative expression vs controls", "setting": "Drosophila melanogaster; p < 0.05", "value": "significantly reduced"}, {"measurement": "Upd3 relative expression vs controls", "setting": "Drosophila melanogaster; p < 0.05", "value": "significantly reduced"}, {"measurement": "body weight", "setting": "C57BL/6J mice; geriatric C57BL/6J mice, throughout the treatment period", "value": "remained stable"}, {"measurement": "plasma levels of glucose, creatinine, GOT, and GPT, treated vs control", "setting": "C57BL/6J mice; geriatric C57BL/6J mice, two rounds of three injections", "value": "no significant differences"}, {"measurement": "SA-β-gal staining in the liver", "setting": "C57BL/6J mice; [1]", "value": "significantly reduced staining"}, {"measurement": "SA-β-gal staining in the pancreas", "setting": "C57BL/6J mice; [1]", "value": "significantly reduced staining"}, {"measurement": "circulating IL-1β", "setting": "C57BL/6J mice; geriatric C57BL/6J mice, vs controls", "value": "significant reduction"}, {"measurement": "Physical Function Score vs control", "setting": "C57BL/6J mice; treated male mice", "value": "significant increase"}, {"measurement": "Vitality Score vs control", "setting": "C57BL/6J mice; treated male mice", "value": "significant increase"}, {"measurement": "tumor incidence at gross necropsy", "setting": "C57BL/6J mice; treated male mice", "value": "lower incidence of tumors"}]}]}
